Values of other authors, collected in patent publication US6743953B2, “Process for the preparation of xanthophyll crystals” (Kancor Flavours & Extracts Ltd., priority 2002, dated 2004).
Where two headings read alike, the source gives them in different places.

Key:
[1] = not given; remark: listed apart in the source

## CC1=C[C@H](O)CC(C)(C)[C@H]1/C=C/C(C)=C/C=C/C(C)=C/C=C/C=C(C)/C=C/C=C(C)/C=C/C1=C(C)C[C@@H](O)CC1(C)C [Lutein, (3R,3′R,6′R)-β,ε-carotene-3,3′-diol]
Solvent Acetone
  Solubility of Lutein in Solvent: 800 Mg/litre
Solvent Benzene
  Solubility of Lutein in Solvent: 600 Mg/litre
Solvent Chloroform
  Solubility of Lutein in Solvent: 6000 Mg/litre
Solvent Cyclohexanone
  Solubility of Lutein in Solvent: 4000 Mg/litre
Solvent Dichloromethane
  Solubility of Lutein in Solvent: 800 Mg/litre
Solvent Ethyl Acetate
  Solubility of Lutein in Solvent: 800 Mg/litre
Solvent Hexane
  Solubility of Lutein in Solvent: 20 Mg/litre
Solvent Tetrahydrofuran
  Solubility of Lutein in Solvent: 8000 Mg/litre
Solvent Toluene
  Solubility of Lutein in Solvent: 400 Mg/litre
[1]; solvent Acetone
  Stability of Lutein in Solvent: Good
[1]; solvent Benzene
  Stability of Lutein in Solvent: Good
[1]; solvent Chloroform
  Stability of Lutein in Solvent: Good
[1]; solvent Cyclohexanone
  Stability of Lutein in Solvent: Poor
[1]; solvent Dichloromethane
  Stability of Lutein in Solvent: Good
[1]; solvent Ethyl Acetate
  Stability of Lutein in Solvent: Good
[1]; solvent Hexane
  Stability of Lutein in Solvent: Good
[1]; solvent Tetrahydrofuran
  Stability of Lutein in Solvent: Good
[1]; solvent Toluene
  Stability of Lutein in Solvent: Good
